Measured values reported in ChEMBL document CHEMBL2375281, “Exploring the UDP pocket of LpxC through amino acid analogs” (Bioorg Med Chem Lett, 2013).

Experiment: Lipophilicity, log D of the compound
Format: physicochemical
Settings: octanol/water

Which logD does the source give for `O=C(N[C@@H](C(=O)NO)c1ccccc1)c1ccc(C#Cc2ccccc2)cc1` here?
Its logD is over 3.

Which logD does the source give for `NC(=O)C[C@H](NC(=O)c1ccc(C#Cc2ccccc2)cc1)C(=O)NO` here?
The logD was 1.

Which logD does the source give for `O=C(C[C@H](NC(=O)c1ccc(C#Cc2ccccc2)cc1)C(=O)NO)NCCCO` here?
Its logD is 2.

For `COCCNC(=O)C[C@H](NC(=O)c1ccc(C#Cc2ccccc2)cc1)C(=O)NO`, which logD is on record?
The logD was 2.

Which logD does the source give for `C#CCNC(=O)C[C@H](NC(=O)c1ccc(C#Cc2ccccc2)cc1)C(=O)NO` here?
The logD was 3.

For `O=C(NC1(C(=O)NO)CCC1)c1ccc(C#Cc2ccccc2)cc1`, which logD is on record?
Its logD is over 3.

Which logD does the source give for `O=C(NC1(C(=O)NO)CCCCC1)c1ccc(C#Cc2ccccc2)cc1` here?
Its logD is over 3.

For `O=C(NC1(C(=O)NO)CCOCC1)c1ccc(C#Cc2ccccc2)cc1`, which logD is on record?
The logD was over 4.

For `O=C(NC1(C(=O)NO)CCSCC1)c1ccc(C#Cc2ccccc2)cc1`, which logD is on record?
Its logD is over 3.

For `O=C(NC1(C(=O)NO)CCS(=O)(=O)CC1)c1ccc(C#Cc2ccccc2)cc1`, which logD is on record?
Its logD is 3.

Which logD does the source give for `O=C(NC1(C(=O)NO)CCNCC1)c1ccc(C#Cc2ccccc2)cc1` here?
The logD was 3.

With `O=C(NC1(C(=O)NO)CCN(Cc2ccccc2)CC1)c1ccc(C#Cc2ccccc2)cc1` as the compound, how does the logD read?
The logD was over 3.

Which logD does the source give for `C[C@H](O)[C@H](NC(=O)c1ccc(C#Cc2ccccc2)cc1)C(=O)NO` here?
Its logD is 2.

Which logD does the source give for `O=C(CNC(=O)c1ccc(C#Cc2ccccc2)cc1)NO` here?
Its logD is 3.

Which logD does the source give for `CC(C)(NC(=O)c1ccc(C#Cc2ccccc2)cc1)C(=O)NO` here?
The logD was 3.

For `O=C(N[C@@H](CO)C(=O)NO)c1ccc(C#Cc2ccccc2)cc1`, which logD is on record?
The logD was 2.

With `O=C(N[C@H](CO)C(=O)NO)c1ccc(C#Cc2ccccc2)cc1` as the compound, how does the logD read?
Its logD is 2.

Which logD does the source give for `NC[C@H](NC(=O)c1ccc(C#Cc2ccccc2)cc1)C(=O)NO` here?
The logD was 2.

With `CSC[C@H](NC(=O)c1ccc(C#Cc2ccccc2)cc1)C(=O)NO` as the compound, how does the logD read?
Its logD is 3.

Which logD does the source give for `CS(=O)(=O)C[C@H](NC(=O)c1ccc(C#Cc2ccccc2)cc1)C(=O)NO` here?
Its logD is 2.

For `O=C(N[C@H](C(=O)NO)c1ccccc1)c1ccc(C#Cc2ccccc2)cc1`, which logD is on record?
Its logD is 3.

Which logD does the source give for `CC(NC(=O)c1ccc(C#Cc2ccccc2)cc1)C(=O)NO` (racemic) here?
The logD was over 3.

With `CC(C)C(NC(=O)c1ccc(C#Cc2ccccc2)cc1)C(=O)NO` (racemic) as the compound, how does the logD read?
Its logD is over 3.
